Measured values as given in patent US9512132B2, “Pyrazole compounds as CB2 agonists” (Hoffmann-La Roche Inc., priority 2013, dated 2016).

Experiments:
human CB2 receptor = human CB2 receptor (Homo sapiens (Human), UniProt P34972); test: cAMP assay, CHO cells expressing human CB2 receptors; format: cell-based; settings: functional cAMP assay, CHO cells expressing human CB2; read-out: human CB2 EC50
Procedure: (§1) CHO cells expressing human CB1 or CB2 receptors are seeded 17-24 hours prior to the experiment 50.000 cells per well in a black 96 well plate with flat clear bottom (Corning Costar #3904) in DMEM (Invitrogen No. 31331), lx HT supplement, with 10% fetal calf serum and incubated at 5% CO2 and 37° C. in a humidified incubator. The growth medium was exchanged with Krebs Ringer Bicarbonate buffer with 1 mM IBMX and incubated at 30° C. for 30 min. Compounds were added to a final assay volume of 100 μl and incubated for 30 min at 30° C. Using the cAMP-Nano-TRF detection kit the assay (Roche Diagnostics) was stopped by the addition of 50 μl lysis reagent (Tris, NaCl, 1.5% Triton X100, 2.5% NP40, 10% NaN3) and 50 μl detection solutions (20 μM mAb Alexa700-cAMP 1:1, and 48 μM Ruthenium-2-AHA-cAMP) and shaken for 2 h at room temperature. The time-resolved energy transfer is measured by a TRF reader (Evotec Technologies GmbH), equipped with a ND:YAG laser as excitation source. The plate is measured twice with the excitation at 355 nm and at the emission with a delay of 100 ns and a gate of 100 ns, total exposure time 10 s at 730 (bandwidth 30 nm) or 645 nm (bandwidth 75 nm), respectively. The FRET signal is calculated as follows: FRET=T730-Alexa730-P(T645-B645) with P=Ru730-B730/Ru645-B645, where T730 is the test well measured at 730 nM, T645 is the test well measured at 645 nm, B730 and B645 are the buffer controls at 730 nm and 645 nm, respectively. cAMP content is determined from the function of a standard curve spanning from 10 μM to 0.13 nM cAMP.
(§2) EC50 values were determined using Activity Base analysis (ID Business Solution, Limited). The EC50 values for a wide range of cannabinoid agonists generated from this assay were in agreement with the values published in the scientific literature.

human CB1 receptor = human CB1 receptor (Homo sapiens (Human), UniProt P21554); test: cAMP assay, CHO cells expressing human CB1 receptors; format: cell-based; settings: functional cAMP assay, CHO cells expressing human CB1; read-out: human CB1 EC50
Procedure: as §1, §2

Sequence of human CB1 receptor (P21554 whole entry): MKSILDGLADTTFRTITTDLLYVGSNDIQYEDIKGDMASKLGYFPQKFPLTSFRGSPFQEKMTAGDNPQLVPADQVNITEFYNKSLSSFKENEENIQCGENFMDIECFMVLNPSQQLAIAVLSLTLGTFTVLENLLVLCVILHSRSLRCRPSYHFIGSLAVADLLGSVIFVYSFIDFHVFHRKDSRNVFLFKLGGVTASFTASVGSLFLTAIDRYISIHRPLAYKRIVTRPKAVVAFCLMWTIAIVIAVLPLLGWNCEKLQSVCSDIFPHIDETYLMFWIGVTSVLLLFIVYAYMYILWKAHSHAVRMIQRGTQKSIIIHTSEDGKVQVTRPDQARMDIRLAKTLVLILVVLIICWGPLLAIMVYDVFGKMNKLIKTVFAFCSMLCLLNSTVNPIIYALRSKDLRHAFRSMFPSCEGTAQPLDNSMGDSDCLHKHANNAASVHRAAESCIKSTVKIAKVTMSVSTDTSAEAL
Sequence of human CB2 receptor (P34972 whole entry): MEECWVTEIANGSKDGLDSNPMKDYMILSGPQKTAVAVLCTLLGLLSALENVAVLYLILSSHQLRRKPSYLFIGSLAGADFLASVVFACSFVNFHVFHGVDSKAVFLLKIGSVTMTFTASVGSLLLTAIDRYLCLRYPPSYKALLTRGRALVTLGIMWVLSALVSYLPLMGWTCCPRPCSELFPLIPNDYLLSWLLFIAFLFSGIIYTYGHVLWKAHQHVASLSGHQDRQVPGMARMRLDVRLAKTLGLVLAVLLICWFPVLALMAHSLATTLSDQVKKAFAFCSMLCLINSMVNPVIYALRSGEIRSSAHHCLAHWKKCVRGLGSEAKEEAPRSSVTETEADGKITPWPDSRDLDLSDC

Q: How did the EC50 (human CB2 receptor) turn out when `Cn1nnnc1Cn1ncc2c(N3CCC(F)(F)C3)nc(C(C)(C)C)nc21` [Example 15, 6-tert-Butyl-4-(3,3-difluoro-pyrrolidin-1-yl)-1-(1-methyl-1H-tetrazol-5-ylmethyl)-1H-pyrazolo[3,4-d]pyrimidine] was run?
A: Its EC50 is 0.9 nM.

Q: What about the EC50 (human CB1 receptor) of the same compound?
A: Its EC50 is over 10000 nM.

Q: `CC(C)(C)c1nc(N2CCC(F)(F)C2)c2cnn(C3CS(=O)(=O)C3)c2n1` [Example 13, 6-tert-Butyl-4-(3,3-difluoro-pyrrolidin-1-yl)-1-(1,1-dioxo-1λ^6-thietan-3-yl)-1H-pyrazolo[3,4-d]pyrimidine] was tested. Which EC50 (human CB2 receptor) did it give?
A: The EC50 was 19.6 nM.

Q: And the EC50 (human CB1 receptor)?
A: The EC50 was over 10000 nM.

Q: For `COC[C@H]1CCCN1c1nc(C(C)(C)C)nc2c1cnn2Cc1ccccc1C(F)(F)F` [Example 35, 6-tert-Butyl-4-((R)-2-methoxymethyl-pyrrolidin-1-yl)-1-[(2-trifluoromethylphenyl)methyl]-1H-pyrazolo[3,4-d]pyrimidine], which EC50 (human CB2 receptor) is on record?
A: Its EC50 is 13.3 nM.

Q: What about the EC50 (human CB1 receptor) of the same compound?
A: The EC50 was over 10000 nM.

Q: Which results are given for `Cc1nonc1Cn1ncc2c(N3CCC(F)(F)C3)nc(C3CC3)cc21` [Example 27, 6-Cyclopropyl-4-(3,3-difluoro-pyrrolidin-1-yl)-1-(4-methyl-furazan-3-ylmethyl)-1H-pyrazolo[4,3-c]pyridine]?
A: EC50 (human CB2 receptor): 42.5 nM; EC50 (human CB1 receptor): > 10000 nM

Q: What does the source list for `CC(C)(C)c1nc(N2CC[C@H](O)C2)c2cnn(Cc3ccccc3C(F)(F)F)c2n1` [Example 29, (S)-1-[6-tert-Butyl-1-[(2-trifluoromethylphenyl)methyl]-1H-pyrazolo[3,4-d]pyrimidin-4-yl]pyrrolidin-3-ol]?
A: EC50 (human CB2 receptor): 1.9 nM; EC50 (human CB1 receptor): > 10000 nM

Q: Which results are given for `COc1ccc(Cn2ncc3c(N4CC[C@H](O)C4)nc(C(C)(C)C)nc32)cc1` [Example 23, (S)-1-[6-tert-Butyl-1-[(4-methoxyphenyl)methyl]-1H-pyrazolo[3,4-d]pyrimidin-4-yl]-pyrrolidin-3-ol]?
A: EC50 (human CB2 receptor): 5.5 nM; EC50 (human CB1 receptor): > 10000 nM

Q: With `CC(C)(C)c1nc(N2CCC(F)(F)C2)c2cnn(Cc3ccccc3S(C)(=O)=O)c2n1` [Example 10, 6-tert-Butyl-4-(3,3-difluoro-pyrrolidin-1-yl)-1-(2-methanesulfonyl-benzyl)-1H-pyrazolo[3,4-d]pyrimidine] as the compound, how does the EC50 (human CB2 receptor) read?
A: Its EC50 is 0.7 nM.

Q: What about the EC50 (human CB1 receptor) of the same compound?
A: The EC50 was 337 nM.

Q: Which results are given for `CC(C)(C)c1nc(N2CC[C@H](O)C2)c2cnn(Cc3ccccc3S(C)(=O)=O)c2n1` [Example 30, (S)-1-[6-tert-Butyl-1-(2-methanesulfonyl-benzyl)-1H-pyrazolo[3,4-d]pyrimidin-4-yl]-pyrrolidin-3-ol]?
A: EC50 (human CB2 receptor): 2.4 nM; EC50 (human CB1 receptor): > 10000 nM

Q: What does the source list for `CC(C)(C)c1nc(N2CCC(F)(F)C2)c2cnn(CC(=O)c3ccncc3)c2n1` [Example 21, 2-[6-tert-Butyl-4-(3,3-difluoro-pyrrolidin-1-yl)-pyrazolo[3,4-d]pyrimidin-1-yl]-1-pyridin-4-yl-ethanone]?
A: EC50 (human CB2 receptor): 3.4 nM; EC50 (human CB1 receptor): > 10000 nM

Q: How did the EC50 (human CB2 receptor) turn out when `COC[C@H]1CCCN1c1nc(C(C)(C)C)nc2c1cnn2Cc1nonc1C` [Example 36, 6-tert-Butyl-4-((R)-2-methoxymethyl-pyrrolidin-1-yl)-1-(4-methyl-furazan-3-ylmethyl)-1H-pyrazolo[3,4-d]pyrimidine] was run?
A: The EC50 was 1.4 nM.

Q: What about the EC50 (human CB1 receptor) of the same compound?
A: Its EC50 is over 10000 nM.

Q: `Cn1nncc1Cn1ncc2c(N3CC=C(F)C3)nc(C(C)(C)C)nc21` [Example 20, 6-tert-Butyl-4-(3-fluoro-2,5-dihydro-pyrrol-1-yl)-1-(3-methyl-3H-[1,2,3]triazol-4-ylmethyl)-1H-pyrazolo[3,4-d]pyrimidine] was tested. Which EC50 (human CB2 receptor) did it give?
A: The EC50 was 1.6 nM.

Q: And the EC50 (human CB1 receptor)?
A: Its EC50 is over 10000 nM.

Q: Which EC50 (human CB2 receptor) does the source give for `CC(C)(C)c1nc(N2CC[C@H](O)C2)c2cnn(Cc3nnnn3C3CC3)c2n1` [Example 33, (S)-1-[6-tert-Butyl-1-(1-cyclopropyl-1H-tetrazol-5-ylmethyl)-1H-pyrazolo[3,4-d]pyrimidin-4-yl]-pyrrolidin-3-ol] here?
A: The EC50 was 8.8 nM.

Q: What about the EC50 (human CB1 receptor) of the same compound?
A: The EC50 was over 10000 nM.

Q: How did the EC50 (human CB2 receptor) turn out when `CC(C)(C)c1nc(N2CCC(F)(F)C2)c2cnn(Cc3ccc(F)cc3Cl)c2n1` [Example 6, 6-tert-Butyl-1-[(2-chloro-4-fluorophenyl)methyl]-4-(3,3-difluoro-pyrrolidin-1-yl)-1H-pyrazolo[3,4-d]pyrimidine] was run?
A: Its EC50 is 5.9 nM.

Q: And the EC50 (human CB1 receptor)?
A: The EC50 was over 10000 nM.
